Data as given in patent US6399654B1, “Biflavanoids and derivatives thereof as antiviral agents” (priority 1995, dated 2002).
pEC50, pIC50: −log10 of the molar value. Counter-ions that a name gives are not always drawn. Like-named read-outs stand apart in the source and are kept apart here.

Experiments:
Hepatitis B Virus (HBV) [1] = experiment: HBV proteins and nucleic acids in 2.2.15 cells; type: cell-based; settings: Day 9, 2.2.15 cells; robustaflavone @10 μM
Experimental: Values of HBV proteins were determined by semi-quantitative EIA performed as previously described.^83 For the EIA analyses, test samples-were diluted (2- to 10-fold) so that the assay values produced were within the linear dynamic range of the EIA assays. Standard curves using serial dilutions of positive assay controls were included in each set of EIA analyses. HBV surface antigen ([…]), preSI protein, and HBc antigen ([…]) are released as extracellular products and were therefore analyzed in culture medium obtained 24 h following the last treatment dose of oligonucleotides or 2′, 3′-ddc. HBV core antigen (HBcAg) is an intracellular viral protein and was assayed in cell extracts produced by Triton-X-100 lysis.^83
Cultures for HBV RNA were maintained on 6-well plates, cultures for HBV virion DNA analyses were maintained on either 96- or 24-well plates, and cultures for all other HBV parameters were maintained on 24-well plates.
The concentrations of antiviral agents used in these studies approximates the EC50 values of the individual agents against intracellular HBV DNA replication intermediates (HBV RI). Cultures were treated with the indicated agents for 9 days using standard procedures. Values reported are the levels of the indicated HBV markers at the end of the treatment period (“DAY 9”) expressed as a percentage (±standard deviation (S.D.) of the average levels in the control cultures at the beginning of the treatment period (“DAY 0”). The method of expression permits an analysis of the variation of the HBV markers in the untreated (control) cultures over the course of the treatment period. HBV nucleic acid levels were measured by standard blot hydridization (dot, Southern, or Northern). HBV protein levels were measured by standard semi-quantitative EIA methods. Cultures for HBV RNA were maintained in 6-well culture plates. The levels of each of two major classes of HBV RNA transcripts are listed separately. Cultures for all other HBV markers were maintained in 24-well culture plates. For each treatment, a total of 4 separate cultures were used for the analysis of each HBV marker at both DAY 0 and DAY 9.
Determination of Mechanism of Action. Measurements of intracellular and extracellular HBV DNA, 3.6 kb and 2.1 kb mRNA fragments, and HBsAg, HBeAg and HBcAg protein markers were conducted as previously described (93).

Hepatitis B Virus (HBV) [2] = experiment: Inhibition of HBV replication in 2.2.15 cells, extracellular (virion) HBV DNA; settings: for SI (CC50/EC90), HBV Virion: selective index; for fold less active/potent than robustaflavone against HBV: in vitro assay against HBV;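 for all read-outs here: extracellular virion HBV DNA in culture medium measured by slot blot hybridization with a 32P-labeled HBV probe, quantified against HBV DNA standards, after 9 days of daily dosing, compared with day 0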
Experimental: (§1) Test compounds were added daily for a nine continuous day period; the culture medium was collected and stored for analysis of extracellular (virion) HBV DNA after 0, 3, 6, and 9 days of treatment. The treated cells were lysed 24 hours following day 9 of treatment for the analysis of intracellular HBV genomic forms. The overall levels of HBV DNA (both extracellular and intracellular DNA) and the relative rate of HBV replication (intracellular DNA) were analyzed quantitatively. The analysis was performed using blot hybridization techniques and [^32P]-labeled HBV-specific probes. The HBV DNA levels were measured by comparison to known amounts of HBV DNA standards applied to every nitrocellulose membrane (gel or slot blot). An AMBIS beta scanner, which measures the radioactive decay of the hybridized probes directly from the nitrocellulose membranes, was used for the quantitative analysis. Standard curves, generated by multiple analyses, were used to correlate CPM measurements made by the beta scanner with relative levels of target HBV DNA. The levels of HBV virion DNA released into the culture medium were analyzed by a slot blot hybridization procedure. HBV DNA levels were then compared to those at day 0 to determine the effect of the test compound. A known positive drug was evaluated in parallel with test compounds in each test.
Determination of therapeutic concentrations (EC50 and EC90) and toxicity concentrations (IC50) were determined as previously described (90). Stock solutions of text drugs were prepared in DMSO. Culture medium was changed daily and analyzed for extracellular HBV DNA after nine days of continuous drug exposure. Extracellular HBV DNA was extracted from the culture media and analyzed by a slot blot hydridization technique, using a ^32P-labeled Eco RI HBV DNA fragment, as previously described (91), and quantitated via comparison to HBV standards on a nitrocellulose filter, using an AMBIS beta scanner. Toxicity was determined by measuring inhibition of neutral red dye uptake. […] Effective concentration values for individual agents are the mean of six cultures per concentration point. Toxicity values are the mean of three cultures per concentration point.

Hepatitis B Virus (HBV) [3] = experiment: HBV replication intermediates (RI, intracellular HBV DNA) in 2.2.15 cells; type: cell-based
Experimental: as §1

HIV-1 RT = molecular target: T1, HIV-1 RT (Human immunodeficiency virus type 1 group M subtype B, UniProt P03366); experiment: Anti-HIV-1 RT assay (recombinant enzyme); type: biochemical; settings: for inhibition at 200 µg/mL: read-out: Anti-HIV-1 RT % Inhibition at 200 μg/ml
T1 construct: made in house; host or cells: Escherichia coli

HCMV = HCMV CPE inhibition in HFF cells; settings: HFF Cells
[4] = read-out: EC50 (50% effective dose), HBV Virion, 2.2.15 cells, extracellular (virion) HBV DNA, 9 days treatment
[5] = read-out: EC90 (90% effective dose), HBV Virion, 2.2.15 cells, extracellular (virion) HBV DNA, 9 days treatment
[6] = Anti-HIV-1 RT IC50, values in parentheses or in words
[7] = values in parentheses or in words
[8] = HIV-1 RT IC50 (50% inhibition dose)

Nc1ccn([C@H]2CC[C@@H](CO)O2)c(=O)n1 [2′,3′-ddC, 2′,3′-dideoxycytosine, reference compound]
Viral Antigens: HBeAg (Hepatitis B Virus (HBV) [1]): 88 ± 10 % of Day 0 Control | Viral Antigens: HBsAg (Hepatitis B Virus (HBV) [1]): 90 ± 12 % of Day 0 Control | Viral Antigens: HbcAG (Hepatitis B Virus (HBV) [1]): 91 ± 9 % of Day 0 Control | Viral DNA: Extracellular DNA (Hepatitis B Virus (HBV) [1]): 1 ± 1 % of Day 0 Control | Viral DNA: Intracellular DNA (Hepatitis B Virus (HBV) [1]): 6 ± 1 % of Day 0 Control | Viral mRNA: 3.6 kb and 2.1 kb mRNA (first column) (Hepatitis B Virus (HBV) [1]): 94 ± 7 % of Day 0 Control | Viral mRNA: 3.6 kb and 2.1 kb mRNA (second column) (Hepatitis B Virus (HBV) [1]): 87 ± 9 % of Day 0 Control | pEC50 (Hepatitis B Virus (HBV) [2]; [4]): 5.74 | pEC50 (Hepatitis B Virus (HBV) [2]; read-out: EC50, concentration necessary to decrease HBV DNA levels by 50%, 2.2.15 cells, combinations: with respect to RF): 5.85 | EC90 (Hepatitis B Virus (HBV) [2]; [5]): 94 µM | SI (CC50/EC90), HBV Virion (Hepatitis B Virus (HBV) [2]): 28 | pEC50 (Hepatitis B Virus (HBV) [3]; 2.2.15 cells, read-out: EC50, HBV replication intermediates (RI) (intracellular DNA)): 5.62

O=c1cc(-c2ccc(O)cc2)oc2cc(O)cc(O)c12 [Apigeriin, 4′,5,7-trihydroxyflavone, reference compound]
activity against HIV-1 RT (in words) (HIV-1 RT): moderate activity | pIC50 (HIV-1 RT; [6]): 3.35 | inhibition at 200 µg/mL (HIV-1 RT): 72%

COc1ccc(C2CC(=O)c3c(OC)cc(OC)c(C4C(=O)c5c(OC)cc(OC)cc5OC4c4ccc(OC)cc4)c3O2)cc1 (stereo not drawn) [GB-1a Me6(14), GB-1a hexamethyl ether]
activity against HIV-1 RT (in words) (HIV-1 RT): inactive | Anti-HIV-1 RT IC50 (HIV-1 RT; [7]): Inactive

O=C1C[C@@H](c2ccc(O)cc2)Oc2c1c(O)cc(O[C@@H]1O[C@H](CO)[C@@H](O)[C@H](O)[C@H]1O)c2[C@H]1C(=O)c2c(O)cc(O)cc2O[C@@H]1c1ccc(O)cc1 [GB-1a glucoside (15), GB-1a 7″-O-b-glucoside]
activity against HIV-1 RT (in words) (HIV-1 RT): no activity | Anti-HIV-1 RT % Inhibition at 200 μg/ml (HIV-1 RT): 1.46% | Anti-HIV-1 RT IC50 (HIV-1 RT; [7]): Inactive

O=C1C[C@@H](c2ccc(O)c(O)c2)Oc2c1c(O)cc(O)c2[C@H]1C(=O)c2c(O)cc(O)cc2O[C@@H]1c1ccc(O)cc1 [GB-2a(16), GB-2a]
HIV-1 RT IC50 (50% inhibition dose) (HIV-1 RT): 94.6 µg/mL | Anti-HIV-1 RT % Inhibition at 200 μg/ml (HIV-1 RT): 96% | pIC50 (HIV-1 RT; values in parentheses or in words, read-out: Anti-HIV-1 RT IC50): 3.77

Nc1nc2c(ncn2COC(CO)CO)c(=O)[nH]1 [GVC, reference compound]
HCMV CPE Inhibition EC50 (HCMV): 0.4 µg/mL

O=C1CC(c2ccc(O)cc2)Oc2cc(O)cc(O)c21 (stereo not drawn) [Naringenin, 4′,5,7-trihydroxyflavanone, reference compound]
activity against HIV-1 RT (in words) (HIV-1 RT): slight inhibition | inhibition at 200 µg/mL (HIV-1 RT): 34.9%

CC(=O)Oc1ccc(-c2cc(=O)c3c(OC(C)=O)c(-c4cc(-c5cc(=O)c6c(OC(C)=O)cc(OC(C)=O)cc6o5)ccc4OC(C)=O)c(OC(C)=O)cc3o2)cc1 [Robustaflavone Hexaacetate, robustaflavone hexaacetate]
fold less active/potent than robustaflavone against HBV (Hepatitis B Virus (HBV) [2]): approximately three-fold | pEC50 (Hepatitis B Virus (HBV) [2]; [4]): 6.14 | EC90 (Hepatitis B Virus (HBV) [2]; [5]): 2.8 µM | SI (CC50/EC90), HBV Virion (Hepatitis B Virus (HBV) [2]): > 360 | SI (CC50/EC90), second value in parentheses (Hepatitis B Virus (HBV) [3]; Table 2, value in parentheses, not explained): 163 | pEC50 (Hepatitis B Virus (HBV) [3]; Table 2, value in parentheses, not explained, read-out: EC50, second value in parentheses): 5.41 | EC90 (Hepatitis B Virus (HBV) [3]; Table 2, value in parentheses, not explained, read-out: EC90, second value in parentheses): 11 µM

COc1ccc(-c2cc(=O)c3c(OC)c(-c4cc(-c5cc(=O)c6c(OC)cc(OC)cc6o5)ccc4OC)c(OC)cc3o2)cc1 [Robustaflavone hexamethyl ether, hexa-O-methylrobustaflavone]
fold less active/potent than robustaflavone against HBV (Hepatitis B Virus (HBV) [2]): ~10 fold | pEC50 (Hepatitis B Virus (HBV) [2]; [4]): 5.54 | EC90 (Hepatitis B Virus (HBV) [2]; [5]): 28 µM | SI (CC50/EC90), HBV Virion (Hepatitis B Virus (HBV) [2]): >36

O=c1cc(-c2ccc(OS(=O)(=O)O)c(-c3c(OS(=O)(=O)O)cc4oc(-c5ccc(OS(=O)(=O)O)cc5)cc(=O)c4c3O)c2)oc2cc(OS(=O)(=O)O)cc(O)c12 [Robustaflavone tetrasulfate (17), robustaflavone-7,4′,7″,4′″-tetrasulfate K-salt]
pIC50 (HIV-1 RT; [6]): 3.84 | pIC50 (HIV-1 RT; [8]): 3.77 | inhibition at 200 µg/mL (HIV-1 RT): 95.5% | anti-HBV activity (in words) (Hepatitis B Virus (HBV) [2]; 2.2.15 cells): extremely effective | pEC50 (Hepatitis B Virus (HBV) [2]; Hepatitis B virus, 216 h, read-out: EC50 (50% effective dose), HBV Virion, 2.2.15 cells, extracellular (virion) HBV DNA, 9 days treatment): 6.40 | EC90 (Hepatitis B Virus (HBV) [2]; Hepatitis B virus, 216 h, read-out: EC90 (90% effective dose), HBV Virion, 2.2.15 cells, extracellular (virion) HBV DNA, 9 days treatment): 3.6 µM | SI (CC50/EC90), HBV Virion (Hepatitis B Virus (HBV) [2]): 110

O=C1c2c(O)cc(O)cc2O[C@@H](c2ccc(O)cc2)[C@@H]1c1c(O)cc(O)c2c(=O)cc(-c3ccc(O)cc3)oc12 [Volkensiflavone (5), volkensiflavone]
activity against HIV-1 RT (in words) (HIV-1 RT): weakly active | inhibition at 200 µg/mL (HIV-1 RT): 45.3%

COc1cccc2c1C(=O)c1c(O)c3c(c(O)c1C2=O)C[C@@](O)(C(C)=O)C[C@@H]3O[C@H]1C[C@H](N)[C@H](O)[C@H](C)O1 [daunomycin, reference compound]
pIC50 (HIV-1 RT; [8]): 3.63

COc1ccc([C@@H]2Oc3cc(OC)cc(OC)c3C(=O)[C@H]2c2c(OC)cc(OC)c3c(=O)cc(-c4ccc(OC)c(OC)c4)oc23)cc1 [morelloflavone heptamethyl ether (8), morelloflavone heptamethyl ether]
activity against HIV-1 RT (in words) (HIV-1 RT): inactive
